# Source: patent US20070265451A1, “Process for the preparation of oxazolidinones and method of use thereof” (Board of Trustees of Michigan State University, priority 2001, published 2007)
# System: Staphylococcus aureus 29213
# Experiment: Broth microdilution MIC, Staphylococcus aureus ATCC 29213
# Assay type: cell-based
# Conditions: Staphylococcus aureus, ATCC29213, Table 2; read-out: MIC(90-100) SA-ATCC 29213
# Excerpt: See, NCCLS document M7-A5. Methods for Dilution Antimicrobial Susceptibility Tests for Bacteria That Grow Aerobically; Approved Standard-Fifth Edition. Volume 20, Number 2. January 2000, (ISBN 1-56238-394-9) and Lorian V. Antibiotics. Laboratory Medicine. 4th ed. Baltimore: Williams and Wilkins, pp. 52-111 (1996). For subsequent testing, the following strains have been used: Staphylococcus aureus NRS4 (992; HIP5836; New Jersey) (Smith et al., New Engl. J. Med. 340: 493-501 (1999); Tenover et al., J. Clin. Microbiol. 36: 1020-1027 (1998)), Staphylococcus aureus NRS3 (963sm; HIP5827; Michigan) (Smith et al., ibid.; Tenover et al., ibid.), Staphylococcus aureus NRS103 (Becker) (Karakawa and Vann, Sem. Infect. Dis. 4: 285 (1982), Staphylococcus aureus NRS102 (Reynolds) Karakawa and Vann, ibid; McMurray et al., JID 162: 759-762 (1990)), Staphylococcus epidermidis NRS101 (ATCC 35984), Streptococcus pneumoniae (ATCC 49619), Enterococcus faecalis (ATCC 51299), and Staphylococcus aureus (ATCC 43300.
# Stock cultures of these strains were obtained by seeding colonies from overnight streak plates (Tryptic Soy Agar II (TSAII) and 5% sheep's blood (SB) agar plates: Becton Dickinson, CA#2211261) into sterile Mueller-Hinton Broth (MHB)(Becton Dickinson, CA#211443) and growing the suspensions to mid-late log phase in 13 mL screw-cap tubes. Glycerol (Sigma, CA#G-6279) was sterilized by autoclaving for 15 minutes at 121° C. in 6 mL volumes, and then stored at 2-8° C. This was diluted to 20% in dH2O, and then added 1:1 (250 μL:250 μL, 10% final glycerol concentration) to the logarithmically growing bacterial suspension of each strain. Tubes were frozen and stored at −70° C. Purity of the stock cultures was tested by thawing one tube of each strain in a water bath at 37° C. and plating them on TSAII with 5% SB. Plates were incubated overnight at 37° C. and colonies were examined for morphology. Growth curves and approximate CFU/mL were also obtained.
# High purity substituted oxazolidinones prepared according to the method of the present invention and a ZYVOX standard (ZYVOX is a trade name for linezolid available from Pharmacia Corporation) were provided by Synthon Corporation, Monmouth Junction, N.J. Compounds were dissolved at 10 mg/mL in DMSO, as after a dilution of approx. 39.0 to reach the desired final starting concentration of 256 ug/ml, the concentration of DMSO is approximately 2.5%. Compounds were then stored at room temperature (25° C.) in the dark.
# Antimicrobial susceptibility screening was as follows. All compounds were initially screened for activity in duplicate at 256 μg/mL (2.5% DMSO), including ZYVOX, the positive control for antimicrobial activity. A single well of bacterially inoculated 2.5% DMSO served as a positive control for bacterial growth, while a well of DMSO inoculated with of 50 μL of sterile 0.9% saline served as a negative growth control. Controls were prepared on every microplate, so that 46 was the maximum number of compounds that were screened per plate. Broth was pipetted into sterile microcentrifuge tubes, to which the compounds were then added (1:19.53 dilution or 2× final concentration). Each tube was vortexed, and 50 μL was immediately transferred to the microplate wells for each strain. Solubility was assessed by visual observation. MB (medium broth solubility) was recorded if the solution appeared only slightly cloudy. LB (low broth solubility) was recorded if the solution was extremely cloudy, and especially if larger, clumpy precipitates formed. Bacteria were grown as described above, although absorbance was measured at 650 nm and bacteria were diluted to an initial OD of 0.12-0.15. Bacteria were then further diluted 1:100 with 0.9% sterile saline. Within 15 minutes of this final dilution, 50 μL of this suspension was added to each well for a final volume of […], and a final bacterial concentration of 1×10^5 CFU/mL (except for the negative control well). Plates were grown as above and all observations were recorded. […]
row,SMILES,MIC
1,"CC(C)(C)C(=O)CN1C[C@@H](COS(=O)(=O)c2ccc(Cl)c3nonc23)OC1=O [Compound 34, (S)-3-(3,3-dimethyl-2-butone)-5-(7-chloro-2,1,3-benzoxadiazole-4-sulfonyloxymethyl)-2-oxazolidinone]",250 µg/mL
2,C=CCN1CC(COS(=O)(=O)c2ccc([N+](=O)[O-])cc2)OC1=O (stereo not drawn) [Compound 108],62.5 µg/mL
3,CC#CCN1CC(COS(=O)(=O)c2ccc([N+](=O)[O-])cc2)OC1=O (stereo not drawn) [Compound 110],31.3 µg/mL
4,C#CCN1CC(COS(=O)(=O)c2ccc(Cl)c3nonc23)OC1=O (stereo not drawn) [Compound 235],62.5 µg/mL
5,C#CCN1CC(COS(=O)(=O)c2ccc([N+](=O)[O-])cc2)OC1=O (stereo not drawn) [Compound 236],31.3 µg/mL
6,O=C1O[C@H](COS(=O)(=O)c2ccc([N+](=O)[O-])cc2)CN1C(=O)C1CC1 [Compound 250],250 µg/mL
7,COc1ccc(C(=O)CN2CC(COS(=O)(=O)c3ccc(Cl)c4nonc34)OC2=O)cc1 (stereo not drawn) [Compound 254],125 µg/mL
8,O=C(CN1C[C@@H](COS(=O)(=O)c2ccc(Cl)c3nonc23)OC1=O)C1CC1 [Compound 260],250 µg/mL
9,CN1CC(COS(=O)(=O)c2ccc([N+](=O)[O-])cc2)OC1=O (stereo not drawn) [Compound 266],15.6 µg/mL
10,CC(C)(C)C(=O)CCN1C[C@@H](COS(=O)(=O)c2ccc([N+](=O)[O-])cc2)OC1=O [Compound 272],250 µg/mL
11,CCOC(=O)CC(C)(C)C(=O)CN1C[C@@H](COS(=O)(=O)c2ccc(Cl)c3nonc23)OC1=O [Compound 291],250 µg/mL
12,O=C1O[C@H](COS(=O)(=O)c2ccc([N+](=O)[O-])cc2)CN1C(=O)c1ccco1 [Compound 334],62.5 µg/mL
13,CC(C)N1C[C@@H](CNS(=O)(=O)c2ccc([N+](=O)[O-])cc2[N+](=O)[O-])OC1=O [Compound 870],16 µg/mL

# Further lines, results first:
row,MIC,SMILES
1,125 µg/mL,CCOC(=O)/C=C/N1CC(COS(=O)(=O)C2=CC=C([N+](=O)[O-])CC2)OC1=O (stereo not drawn) [Compound 388]
2,125 µg/mL,CC(C)(C)CC(=O)CN1C[C@@H](COS(=O)(=O)c2ccc([N+](=O)[O-])cc2)OC1=O [Compound 533]
3,125 µg/mL,O=C(CN1C[C@@H](COS(=O)(=O)c2ccc([N+](=O)[O-])cc2)OC1=O)N1CCOCC1 [Compound 589]
4,62.5 µg/mL,COC(=O)CN1C[C@@H](COS(=O)(=O)c2ccc([N+](=O)[O-])cc2)OC1=O [Compound 669]
5,62.5 µg/mL,CCOC(=O)/C=C/N1CC(COS(=O)(=O)c2ccc(Cl)c([N+](=O)[O-])c2)OC1=O (stereo not drawn) [Compound 695]
6,64 µg/mL,CC(C)N1C[C@@H](CNS(=O)(=O)c2ccc([N+](=O)[O-])cc2)OC1=O [Compound 860]
7,256 µg/mL,CCCCN1CC(COS(=O)(=O)c2cccc3nsnc23)OC1=O (stereo not drawn) [Compound 905]
8,256 µg/mL,CCOC(=O)CC(C)(C)C(=O)CN1C[C@H](COS(=O)(=O)c2ccc([N+](=O)[O-])cc2)OC1=O [Compound 921]
9,256 µg/mL,CCC#CCN1C[C@H](COS(=O)(=O)c2ccc(Cl)c3nonc23)OC1=O [Compound 924]
10,64 µg/mL,O=C1O[C@@H](COS(=O)(=O)c2ccc([N+](=O)[O-])cc2)CN1C(=O)C1CC1 [Compound 929]
11,32 µg/mL,O=C1O[C@@H](COS(=O)(=O)c2ccc([N+](=O)[O-])cc2)CN1C(=O)c1ccco1 [Compound 942]
12,32 µg/mL,CC(C)N1C[C@H](COS(=O)(=O)c2ccc([N+](=O)[O-])cc2)OC1=O [Compound 952]
13,256 µg/mL,CN(C)C(=O)CN1C[C@@H](COS(=O)(=O)c2ccc(Cl)c3nonc23)OC1=O [Compound 1026]
14,256 µg/mL,COC(=O)CN1C[C@@H](COS(=O)(=O)c2ccc(Cl)c([N+](=O)[O-])c2)OC1=O [Compound 1058]
15,16 µg/mL,CC(=O)CN1C[C@@H](COS(=O)(=O)c2ccc([N+](=O)[O-])cc2)OC1=O [Compound 1063]
16,256 µg/mL,CC(=O)CN1C[C@@H](COS(=O)(=O)c2ccc(Cl)c3nonc23)OC1=O [Compound 1066]
17,256 µg/mL,CC(=O)CN1C[C@@H](COS(=O)(=O)c2ccc(Cl)c([N+](=O)[O-])c2)OC1=O [Compound 1081]
